Assay results reported in patent US12239644B2, “Composition for prevention or treatment of macular degeneration” (KYUNGPOOK NATIONAL UNIVERSITY INDUSTRY-ACADEMIC COOPERATION …, priority 2018, dated 2025).
Read-outs that look alike come from different tables or passages of the source.

Key:
HIF-1α = conditions: ARPE-19 cells, 1% oxygen 4-6 hours, fursultiamine-HCl 20, 50, 100 μM
Experimental: After hypoxic exposure for 4-6 hours, the cells were lysed with a protein lysis buffer and protein isolation from the lysate was conducted.

[1] = test system: choroidal vascular endothelial cells; conditions: C57BL/6J choroid/sclera in Matrigel, day 3 to 5
Experimental: Effects of fursultiamine on the growth of choroidal vascular endothelial cells were evaluated by the ex vivo mouse choroid sprouting assay for age-related macular degeneration.
The eyeball was resected from C57BL/6J mice (Jackson Laboratory) at 3 or 4 weeks of age and the choroid/sclera was separated therefrom and sectioned into a size of 1 mm×1 mm. After being thawed on ice, Matrigel (Becton Dickinson, BD matrigel) in a liquid state was added in an amount of 300 μl to each well of 24-well plates and one of the cut choroid/sclera segments was seeded in the Matrigel in each well. Then, Matrigel was solidified for 10 min in a 37° C. incubator before adding 500 μl of an EGM medium (Lonza, Endothelial Growth Medium) to each well.
Subsequently, the growth of vascular endothelial cells was induced in a 37° C. incubator. The medium was exchanged every two days with a fresh one containing 20 μM or 50 μM fursultiamine-HCl. The growth of vascular endothelial cells from the choroid was monitored from the day of seeding the choroid/sclera and observed on day 3 to 5. The sprouting distances were measured at a total of 4 sites using the ImageJ software and averaged. Statistical analyses were performed with the Prism program, with statistical significance defined as p<0.05.

VEGF = conditions: ARPE-19 medium
Experimental: ARPE-19 cells were seeded into 60-mm dishes and incubated overnight to adhere to the dishes. On the next day, the medium was replaced with serum-free medium. The cells were treated with fursultiamine-HCl (Toronto research chemical, F865230) or a vehicle (DMSO, Sigma-Aldrich) at the specific concentrations of 0 μM, 50 μM, and 100 μM and then exposed to 1% oxygen condition in a hypoxic chamber (INVIVO2 400, Baker). After hypoxic exposure for 4-6 hours, the cells were lysed with a protein lysis buffer and protein isolation from the lysate was conducted.
After 12 hours later, the medium was recovered and secreted levels of VEGF in the medium were measured using human VEGF enzyme linked immunoassay (ELISA) (R&D systems). Quantitation methods and concentration calculations were conducted according to the manufacturer's manual. Statistical analyses were performed using the Prism program, with statistical significance defined as p<0.05.

laser-induced CNV models = conditions: C57BL/6J mice, 50 mg/kg orally for 8 days, one week after laser
Experimental: (§1) Statistical analyses were performed using the Prism program, with statistical significance defined as p<0.05.

[2] = test system: laser-induced choroid neovascularization (CNV) models; conditions: C57BL/6J mice, 50 mg/kg orally for 8 days, one week after laser
Experimental: as §1

ARPE-19 cells = conditions: ARPE-19, LPS 10 ug/ml + fursultiamine 50 uM (24 h)
Experimental: To be specific, ARPE-19 cells were seeded onto 96-well XF plates, with the exchange of a fresh medium every two days. On day 5 after cell seeding, the cells were treated with 10 μg/ml LPS (lipopolysaccharides, Sigma-Aldrich) and then with 50 μM fursultiamine on day 6. On day 7, the medium was exchanged with an XF medium (Seahorse XF DMEM medium, Agilent) and the plates were left for 30 min at 37° C. in a non-CO2 incubator.
In order to assess mitochondrial spare capacity, the following mitochondrial electron transport inhibitors and respiratory uncouplers were used in corresponding steps: oligomycin (2 μM), FCCP (0.5 μM), rotenone (2 μM), and antimycin A (2 μM).
The oxygen consumption rate (OCR) was measured using an XFe96 analyzer (Agilent) according to the manufacturer's manual.

CC(=C(CCO)SSCC1CCCO1)N(C=O)Cc1cnc(C)nc1N (stereo in doubt) [Fursultiamine, thiamine tetrahydrofurfuryl disulfide]
expression of HIF-1α upregulated in the hypoxic condition (HIF-1α): reduced
Sprouting range (pixels) ([1]; Fursultiamine 20 uM): 229.926 ± 28.348 pixels
Sprouting range (pixels) ([1]; Fursultiamine 50 uM): 126.713 ± 22.810 pixels
VEGF (VEGF; 1% O2, Fursultiamine 50 μM): 163.4 ± 7.4 pg/mL
VEGF (VEGF; 1% O2, Fursultiamine 100 μM): 47.4 ± 4.6 pg/mL
Lesion size (10^−3mm^2) (laser-induced CNV models): 15.7 ± 1.0 10^−3mm^2
vascular leakage for the late phase [2]: decreased
OCR (%) (mitochondrial spare capacity) (ARPE-19 cells): 189.438 ± 21.392%
